Measurements from EP1306084A1, “Compositions for the control of parasitic infestations in fish” (Alpharma AS, priority 1998, dated 1999).

Assays:
sea lice [1] = assay: Oral treatment (coated feed / Akvaletter) of naturally sea lice infected salmon in minicages (Example 2); assay type: in vivo, Atlantic salmon (Salmo salar)
Experimental: The treatment dosage was 9 mg hexaflumuron per kg fish per day for 10 days. This is indicated by "Groups/Timepoints" in the figure; • Figure 2 relates to the trial in Example 2 that was carried out on Atlantic salmon (Salmo salar). […] The treatment dosage varied between 3 - 9 mg hexaflumuron and 9- 12 mg fluazuron per kg fish per day for 7 days. This is indicated by "Groups/Timepoints" in the diagram. […] The treated groups are compared to an untreated control group. The treatment dosage was 4 mg hexaflumuron per kg fish per day for 5 days. This is indicated by "Groups/Timepoints" in the figure. Cage 2 = controls, Cage 4-6 = treated groups, 16.6.97 = time point for sea transfer and 5.8.97= controls treated by bathing with deltamethrin; • Figure 4 relates to the trial described in Example 5, which was carried out on sea trout (Salmo trutta). […] The treated groups are compared with an untreated control group. The dosage for oral treatment was 4 mg hexaflumuron per kilo fish per day for 5 days, and 5 ppm hexaflumuron as a 30 minute bath treatment. This is indicated by "Groups/Timepoints" in the figure. Cage 1.4 = Controls, cage 1.3 = Oral treatment, cage 1.2 = Bath treatment. […] The treated groups are compared with an untreated control group, and one group that has been treated orally with teflubenzuron (10 mg/kg of teflubenzuron per kg fish per day for 7 days). The dosage for oral treatment was 5.6 mg hexaflumuron per kg fish per day for 7 days, and 5 ppm hexaflumuron as a 30 minute bath treatment. […] End of treatment: 22.10.97, Sea transfer: 23.10.97. T1 = 3 weeks post end of treatment, T2 = 5 weeks post end of treatment, T3 = 9 weeks post end of treatment, T4 = 12 weeks post end of treatment; • Figure 6 relates to the trial in Example 6 at time points 4-6, with the same trial parameters as for Figure 5. T5 = 15 weeks post end of treatment, T6 = 17 weeks post end of treatment. Cage 3 and 4 were treated by bath with deltamethrin after sea lice counting at T4 (12.01.98); • Figure 7 relates to the trial described in Example 7 where salmon were injected on 17.12.97 with two formulations (groups L and R, respectively) of hexaflumuron and a vaccine formulation without hexaflumuron (control). […] The vaccinated fish was transferred to sea water on 09.01.98; • Figure 8 summarises the trial of Example 8 where salmon smolts were injected with 9 different active substances on 08.07.98. Only results for Moxidectin (Mox.), Lufenuron (Luf.) and hexaflumuron in Apoject 1-Fural (Hex.Apo) and in animal oil (Hex.oil) are shown, and • Figure 9 summarises the trial described in Example 10 where salmon were injected on 03.12.97 with 3 different formulations of hexaflumuron (Hexa 1, Hexa 2 and Hexa 3). The fish were transferred to sea water at T0. […]

[2] = Field trial: weight and length of recaptured tagged fish (Example 3); assay type: in vivo, wild sea trout (Salmo trutta); details: treated fish caught June 20 to August 7
Experimental: About 2,000 wild sea trout (Salmo trutta) were divided into two groups and marked with Carlin tags in two different colours (yellow or red) so that individuals of the groups could easily be distinguished from each other when observed in the water. The group with yellow Carlin tags were given feed containing hexaflumuron. The dose was about 3 mg of hexaflumuron per fish per day for six days. The feeding was done the last week before they were transferred to the sea in the beginning of May. The control group had red Carlin tags and was fed ordinary fish feed until sea transfer. Both groups of fish were transferred to the sea 200 metres from the river mouth of the Bondhus River in Hordaland in Norway. From sea transfer (May 8) until August 7, neighbouring rivers and estuaries round these rivers were examined every week, using fishing by application of high voltage and net fishing.
The following average lengths and weights were recorded for the fish that were caught during the period: • Control fish: Average weight 50.4 ± 48.8 grams. Average length 19.7 ± 13.3 cm. • Treated fish: Average weight 87.1 ± 69.6 grams. Average length 35.9 ± 19.1 cm.

sea lice [3] = assay: Oral or bath treatment in freshwater before sea transfer, sea lice counts after natural infestation (Example 6); assay type: in vivo, Atlantic salmon (Salmo salar)
Experimental: The treatment dosage was 9 mg hexaflumuron per kg fish per day for 10 days. This is indicated by "Groups/Timepoints" in the figure; • Figure 2 relates to the trial in Example 2 that was carried out on Atlantic salmon (Salmo salar). […] The treatment dosage varied between 3 - 9 mg hexaflumuron and 9- 12 mg fluazuron per kg fish per day for 7 days. This is indicated by "Groups/Timepoints" in the diagram. […] The treated groups are compared to an untreated control group. The treatment dosage was 4 mg hexaflumuron per kg fish per day for 5 days. This is indicated by "Groups/Timepoints" in the figure. Cage 2 = controls, Cage 4-6 = treated groups, 16.6.97 = time point for sea transfer and 5.8.97= controls treated by bathing with deltamethrin; • Figure 4 relates to the trial described in Example 5, which was carried out on sea trout (Salmo trutta). […] The treated groups are compared with an untreated control group. The dosage for oral treatment was 4 mg hexaflumuron per kilo fish per day for 5 days, and 5 ppm hexaflumuron as a 30 minute bath treatment. This is indicated by "Groups/Timepoints" in the figure. Cage 1.4 = Controls, cage 1.3 = Oral treatment, cage 1.2 = Bath treatment. […] The treated groups are compared with an untreated control group, and one group that has been treated orally with teflubenzuron (10 mg/kg of teflubenzuron per kg fish per day for 7 days). The dosage for oral treatment was 5.6 mg hexaflumuron per kg fish per day for 7 days, and 5 ppm hexaflumuron as a 30 minute bath treatment. […] End of treatment: 22.10.97, Sea transfer: 23.10.97. T1 = 3 weeks post end of treatment, T2 = 5 weeks post end of treatment, T3 = 9 weeks post end of treatment, T4 = 12 weeks post end of treatment; • Figure 6 relates to the trial in Example 6 at time points 4-6, with the same trial parameters as for Figure 5. T5 = 15 weeks post end of treatment, T6 = 17 weeks post end of treatment. Cage 3 and 4 were treated by bath with deltamethrin after sea lice counting at T4 (12.01.98); • Figure 7 relates to the trial described in Example 7 where salmon were injected on 17.12.97 with two formulations (groups L and R, respectively) of hexaflumuron and a vaccine formulation without hexaflumuron (control). […] The vaccinated fish was transferred to sea water on 09.01.98; • Figure 8 summarises the trial of Example 8 where salmon smolts were injected with 9 different active substances on 08.07.98. Only results for Moxidectin (Mox.), Lufenuron (Luf.) and hexaflumuron in Apoject 1-Fural (Hex.Apo) and in animal oil (Hex.oil) are shown, and • Figure 9 summarises the trial described in Example 10 where salmon were injected on 03.12.97 with 3 different formulations of hexaflumuron (Hexa 1, Hexa 2 and Hexa 3). The fish were transferred to sea water at T0.
About 400 Atlantic salmon (Salmo salar) of an average weight of 80 grams were divided into four groups of 100 fish in each. One group was given an oral treatment of 5.6 mg hexaflumuron per kg fish each day for 7 days before sea transfer. Group two was given a bath treatment with a dosage of 5 ppm (mg/l) hexaflumuron for 30 minutes with a formulation containing 10% hexaflumuron. Group three was given oral treatment with a daily dosage of 10 mg teflubenzuron per kg fish for 7 days, while the last group remained untreated. […] Every third week, lice from 10 fish in each cage were counted to assess if there was a difference in the number of lice between the cages. […]

[4] = Chemical analysis of muscle/skin after injection of hexaflumuron formulations (Example 8); assay type: in vivo, salmon smolt; details: 50 mg/kg; for concentration at 5232 h: fish, muscle/skin, T8 (218 days after injection)
Experimental: Tissue samples (muscle/skin) for chemical analysis were collected from five fish injected with the various hexaflumuron formulations at each sample point in time throughout the trial. […] At sea water transfer, the muscle/skin concentrations in the two other hexaflumuron groups (Apoject 1-Fural, animal oil) varied between 1 and 2.5 µg hexaflumuron/g tissue.

With `O=C(NC(=O)c1c(F)cccc1F)Nc1cc(Cl)c(OC(F)(F)C(F)F)c(Cl)c1` [hexaflumuron] the “reduced the number of lice as compared to the control treatment” value (sea lice [1]; all groups treated with hexaflumuron, 3.0-9.0 mg per day, 7 days, 8.0 - 9.8°C) was “more than 70%”, the “reduction of sensitive chalimus and pre-adult stages” value (sea lice [1]; groups given the highest dosage (9.0 mg per day, 7 days)) was greater than 99% and the “reduction of sensitive chalimus and pre-adult stages” value (sea lice [1]; hexaflumuron groups, 3.0-9.0 mg per day, 7 days) was greater than 90%. For the same compound, the Average length ([2]; control fish 19.7 ± 13.3) was 35.9 ± 19.1 cm, the Average weight ([2]; control fish 50.4 ± 48.8) was 87.1 ± 69.6 grams and the protection period (sea lice [3]; hexaflumuron oral or bath before sea transfer) was “at least 11 weeks”. For the same compound, the “number of lice larger than Chalimus II versus control” value (sea lice [3]; oral 5.6 mg per kg each day for 7 days or bath 5 ppm for 30 minutes, 5, 8 and 11 weeks (time points 2, 3 and 4)) was “significantly lower”, the “hexaflumuron concentrations in muscle/skin” value ([4]; T3, injected in an aqueous suspension (PBS)) was “below 0.02 µg per g” and the concentration at 5232 h ([4]; Apoject 1-Fural group) was 260 ng/g. It also gave a concentration at 5232 h ([4]; animal oil group) of 270 ng/g.
